The text below walks through data of US5733922A, “Imidazole derivative, pharmaceutically acceptable salt thereof, and anti-ulcer drug including such derivative or salt” (Arax Co., Ltd., priority 1995, dated 1998).

Structures are written as SMILES.

For orientation: LD50 means the dose expected to kill half of the subjects tested.

One data set concerns acetic acid-induced gastric ulcer. As to the kind of experiment: Healing effect on acetic acid-induced gastric ulcer of rat. Format: in vivo. To be noted: male Donryu rat, oral, 50 mg/kg two times a day, 10 consecutive days; ulcer surface area. The method, then: A male Donryu rat of 7-week age was subjected to abdominal incision to expose the stomach, with pentobarbital used as an anesthesia. Using a metal ring having an inside diameter of 10 mm, 200 μL of glacial acetic acid was applied for contact with a serosa-side part of a boundary area between the antrum and the corpus body. The abdomen of the specimen rat subjected to the glacial acetic acid was closed by an operation, and the rat was then fed in a normal way. The compound obtained in Example 16 was orally administered as a specimen drug to the specimen rat two times a day (at 9:00 a.m. and 5:00 p.m.), each time with a dose of 50 mg/kg, beginning on the day following the day on which the glacial acetic acid was applied to the rat. The oral administration continued for 10 consecutive days, with a total of 20 administrations. On the day following the last day of administration, the specimen rat was sacrificed with ether, and the ulcer portion of the rat was fixed with formalin. The surface area of the ulcer portion was measured. The healing percent (%) calculated on the basis of the measured surface area was 28.9%.
Regarding `CN(C)c1ccccc1CSC1=NC(C)(C)C(=O)N1` [Example 16, 2-(2-dimethylaminobenzylthio)-5,5-dimethylimidazolin-4-one], the healing percent was 28.9%.

Test system in the next data set: not listed separately
The experiment in a line: Single-dose toxicity study. To be noted: mouse, in vivo, male ddY mice, oral, observed two weeks, read-out: median lethal dose LD50. The method, then:
Ten male ddY mice (each having a weight of 22-28 g) were used as specimen animal in a cage kept at a substantially constant temperature of 23°±1° C. and under a substantially constant humidity of 55±5%. The compound prepared in Example 39, that is, 2-(2-dimethylaminobenzylthio)-5,5-dimethylimidazolin-4-thione was used as the specimen drug. This compound was suspended in a 2% solution of polysorbate 80, and the suspension was administered to each specimen mouse, with different doses. […] On the basis of the death percent, lethal dose (LD50) which causes a 50% death was obtained as an index indicative of the single dose toxicity. The obtained median lethal dose LD50 (oral administration) was 2000 mg/kg or more. It was thus confirmed that the median lethal dose LD50 (oral administration) of the compound according to the present invention was sufficiently large, indicating a low degree of toxicity or a high degree of safety.
In the case of `CN(C)c1ccccc1CSC1=NC(C)(C)C(=S)N1` [Example 39, 2-(2-dimethylaminobenzylthio)-5,5-dimethylimidazolin-4-thione], the 50% lethal dose (LD50) at 336 h was not below 2000 mg/kg.

In the next data set the test system is water-immersion restraint stress-induced gastric ulcer. As to the kind of experiment: Inhibitory effect on water-immersion restraint stress-induced gastric ulcer. The class given is in vivo. To be noted: male SD rats, oral, 10 mg/kg, 7 h water-immersion restraint stress. The method, then:
Male 7-week SD rats were fasted for 24 hours, with a fast of water beginning in early morning of the day when the experiments were performed. The rats were classified into groups each consisting of five rats, such that all the groups have substantially the same average weight. Before giving a stress to the rats, the compounds of the Examples indicated in TABLE 1 were orally administered as specimen drugs to the rats, with a dose of 10 mg/kg. The rats were then kept in stress cages, and were given a stress by immersing the cages in a water bath kept at a substantially constant temperature of 23°±1° C., such that the water level was at the height of the xiphoid of the rats. Seven hours later, the specimen rats were sacrificed by ether, and the mucosa of the stomach of each rat was semi-fixed with 2% formalin. The longitudinal length of the damaged area of the gastric mucosa was measured. A sum of the measured length values of the rats of each group was calculated as an ulcer index. An anti-ulcer or ulcer inhibitory percent (%) was calculated as {1-(ulcer index of each group of specimen rats)/(ulcer index of non-specimen group)}×100.
As for `CCC1(CC)N=C(SCc2ccccc2N(C)C)NC1=O` [Example 28, 2-(2-dimethylaminobenzylthio)-5,5-diethylimidazolin-4-one], the “Inhibitory Percent (ulcer inhibitory percent)” value (from here on “Inhibitory Percent”) turned out to be 73.8%.

`CC1N=C(SCc2ccccc2N(C)C)NC1=O` (centres unmarked) [Example 22, 2-(2-dimethylaminobenzylthio)-5-methylimidazolin-4-one]: the “Inhibitory Percent” value worked out at 48.9%.

On to `CN1C(=O)C(C)(C)N=C1SCc1ccccc1N(C)C` [Example 35, 1-N-methyl-2-(2-dimethylaminobenzylthio)-4,4-dimethyl-2-imidazolin-5-one], for which the “Inhibitory Percent” value came to 30.6%.

For the compound `CCC1(c2ccccc2)N=C(SCc2ccccn2)NC1=O` (centres unmarked) [Example 13, 2-(2-pyridylmethylthio)-5-ethyl-5-phenylimidazolin-4-one], the “Inhibitory Percent” value is listed as 46.3%.

As for `CC1(C)N=C(SCc2cccc3cccnc23)NC1=S` [Example 44, 2-(8-quinolynylmethylthio)-5,5-dimethylimidazolin-4-thione], the “Inhibitory Percent” value is on record as 28.8%.

`CN(C)c1ccccc1CSC1=NC(C)(C)C(=O)N1` [Example 16, 2-(2-dimethylaminobenzylthio)-5,5-dimethylimidazolin-4-one]: the “Inhibitory Percent” value came out at 82.4%.

`CN(C)c1ccccc1CSC1=NC(=O)/C(=C\c2ccccc2)N1` [Example 18, 2-(2-dimethylaminobenzylthio)-5-trans-benzylideneimidazolin-4-one]: the “Inhibitory Percent” value is given as 34.1%.

As to `O=C1N=C(SCc2ccccn2)N/C1=C/c1ccccc1` [Example 4, 2-(2-pyridylmethylthio)-5-trans-benzylideneimidazolin-4-one], the “Inhibitory Percent” value is 63.3%.

Regarding `C=C1NC(SCc2ccccn2)=NC1=O` [Example 5, 2-(2-pyridylmethylthio)-5-trans-methylideneimidazolin-4-one], the “Inhibitory Percent” value came to 23.3%.

The next data set relates to hydrochloric acid.ethanol-induced gastric ulcer. The experiment in a line: Inhibitory effect on hydrochloric acid.ethanol-induced gastric ulcer. To be noted: Rattus norvegicus, 1 h, male SD rats, oral, 30 min before 98% ethanol containing 200 mM hydrochloric acid, read-out: Inhibitory Percent (ulcer inhibitory percent). Format: in vivo. The method, then:
Male SD rats of 7-week age were fasted for 24 hours, with a fast of water beginning in early morning of the day when the experiments were performed. The rats were classified into groups each consisting of five rats, such that all the groups have substantially the same average weight. Before giving hydrochloric acid.ethanol to the rats, the compounds of the Examples indicated in TABLE 2 were orally administered as specimen drugs to the rats, with a dose of 30 mg/kg. Thirty minutes later, 1 mL of 98% ethanol containing 200 mM of hydrochloric acid was orally administered to each specimen rat. One hour later, the specimen rats were sacrificed by ether, and the mucosa of the stomach of each rat was semi-fixed with 2% formalin. The longitudinal length of the damaged area of the gastric mucosa was measured, and the anti-ulcer percent values of the individual specimen drugs were calculated on the basis of the sum of the measured length values of each group of the specimen rats, in the same manner as in Example 68.
In the case of `CCCCC1(CC)N=C(SCc2ccccc2N(C)C)NC1=O` (centres unmarked) [Example 29, 2-(2-dimethylaminobenzylthio)-5-butyl-5-ethylimidazolin-4-one], the inhibition in vivo at 30 mg/kg is 69.5%.

Regarding `O=C1CN=C(SCc2ccccn2)N1` [Example 1, 2-(2-pyridylmethylthio)imidazolin-4-one], the inhibition in vivo at 30 mg/kg stood at 71.9%.

Turning to `CC1N=C(SCc2ccccn2)NC1=O` (centres unmarked) [Example 9, 2-(2-pyridylmethylthio)-5-methylimidazolin-4-one], the inhibition in vivo at 30 mg/kg turned out to be 94.9%.

Regarding `CC(C)CN(C)c1ccccc1CSC1=NC(C)(C)C(=O)N1` [Example 21, 2-(2-N-isobutyl-N-methylaminobenzylthio)-5,5-dimethylimidazolin-4-one], the inhibition in vivo at 30 mg/kg was determined as 99.6%.

As to `CC1(C)N=C(SCc2ccccn2)NC1=O` [Example 8, 2-(2-pyridylmethylthio)-5,5-dimethylimidazolin-4-one], the inhibition in vivo at 30 mg/kg was determined as 93%.

`CCC1(C)C(=O)N=C(SCc2ccccc2N(C)C)N1C(C)=O` (centres unmarked) [Example 34, 1-N-acetyl-2-(2-dimethylaminobenzylthio)-5-ethyl-5-methyl-2-imidazolin-4-one]: the inhibition in vivo at 30 mg/kg is 52%.

Consider `CN(C)c1ccccc1CSC1=NC(Cc2ccccc2)C(=O)N1` (centres unmarked) [Example 23, 2-(2-dimethylaminobenzylthio)-5-benzylimidazolin-4-one], for which the inhibition in vivo at 30 mg/kg came out at 83.6%.

For `CN(C)c1ccccc1CSC1=NC(C)(c2ccccc2)C(=S)N1` (centres unmarked) [Example 41, 2-(2-dimethylaminobenzylthio)-5-phenyl-5-methylimidazolin-4-thione], the inhibition in vivo at 30 mg/kg is 74.5%.

The same data set, now with this note: male SD rats, oral, 30 mg/kg, 30 min before 98% ethanol containing 200 mM hydrochloric acid.
On to `CN(C)c1ccccc1CSC1=NC(=O)/C(=C\c2ccccc2)N1` [Example 18, 2-(2-dimethylaminobenzylthio)-5-trans-benzylideneimidazolin-4-one], for which the “Inhibitory Percent” value came out at 37.4%.
